Source: patent US8178552B2, “7-Azaindole derivatives and their use in the inhibition of c-Jun N-terminal kinase” (Eisai R&D Management Co., Ltd., priority 2008, dated 2012)

Each molecule was assayed against JNK3 (Homo sapiens, UniProt P53779) (assay: JNK3 SPA assay). Settings: 3.33 μM ATP, GST-c-Jun substrate; read-out: IC50 against JNK3.
Type: biochemical
Experimental: JNK1, JNK2, JNK3—SPA Assay
JNK1, JNK2, JNK3—SPA Assay • 1. Compound is dissolved in DMSO to a convenient concentration and this is diluted in 10% DMSO to a five times concentrate of the desired starting concentration (frequently 1:100). • 2. 10 μl of 500 mM EDTA is added to alternative wells of the Opti-plate row, which will receive kinase reaction plus DMSO. This creates the negative control. • 3. For the JNK2 and JNK3 assay, compounds are prepared in six 2-fold dilutions with water and each concentration is tested in duplicate. For the JNK1 assay compounds are prepared in four 5-fold dilutions with water which are tested in triplicate. Controls are treated identically. • 4. 20 μl per well of each compound concentration is transferred to an Opti-plate, in duplicate. • 5. 30 μl (JNK2/3 SPA) or 50 μl (JNK1 SPA) of substrate solution (25 mM HEPES pH 7.5, 10 mM magnesium acetate with 3.33 μM ATP (JNK2/3) or 2 μM ATP (JNK1), approximately 7.5 kBq [γ-^33P] ATP, GST-c-Jun, in water) is added to each well. • 6. 50 μl (JNK2/3 SPA) or 30 μl (JNK1 SPA) of kinase solution (JNK in 25 mM HEPES pH 7.5, 10 mM Mg Acetate) is added to each well.
• 7. The plate is incubated for 30 minutes at room temperature. • 8. 100 μl of bead/stop solution is added to each well (5 mg/ml glutathione-PVT-SPA beads, 40 mM ATP in PBS). • 9. Plates are sealed and incubated for 30 minutes at room temperature, centrifuged for 10 minutes at 2500 g and counted. • 10. The IC50 values are calculated as the concentration of the compound being tested at which the phosphorylation of c-Jun is decreased to 50% of the control value.

Sequence of JNK3 (P53779 whole entry, species assumed): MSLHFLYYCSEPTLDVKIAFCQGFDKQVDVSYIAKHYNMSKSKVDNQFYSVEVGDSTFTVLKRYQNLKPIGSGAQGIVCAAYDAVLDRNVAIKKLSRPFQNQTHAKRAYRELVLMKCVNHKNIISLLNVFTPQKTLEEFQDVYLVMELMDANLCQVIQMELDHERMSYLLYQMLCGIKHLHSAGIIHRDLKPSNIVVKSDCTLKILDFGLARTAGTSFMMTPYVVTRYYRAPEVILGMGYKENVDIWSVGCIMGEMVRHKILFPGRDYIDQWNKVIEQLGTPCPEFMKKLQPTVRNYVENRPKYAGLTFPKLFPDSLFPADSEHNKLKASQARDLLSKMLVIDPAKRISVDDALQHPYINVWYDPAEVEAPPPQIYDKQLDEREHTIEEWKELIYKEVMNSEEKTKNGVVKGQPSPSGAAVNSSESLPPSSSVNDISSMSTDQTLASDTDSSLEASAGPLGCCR

| SMILES | IC50 |
| --- | --- |
| CCC1CCC(c2cnc3[nH]cc(-c4cnn(C)c4)c3c2)CC1 (mixture of isomers) [Compound I-22, 5-(4-ethylcyclohexyl)-3-(1-methyl-1H-pyrazol-4-yl)-1H-pyrrolo[2,3-b]pyridine] | 25 nM |
| Cn1cc(-c2c[nH]c3ncc([C@H]4CC[C@H](N5CCC(F)(F)C5)CC4)cc23)cn1 [Compound I-47, 5-((1r,4r)-4-(3,3-difluoropyrrolidin-1-yl)cyclohexyl)-3-(1-methyl-1H-pyrazol-4-yl)-1H-pyrrolo[2,3-b]pyridine] | 93 nM |
| CCCN(CC)[C@H]1CC[C@H](c2cnc3[nH]cc(-c4cnn(C)c4)c3c2)CC1 [Compound I-113, (1r,4r)-N-ethyl-4-(3-(1-methyl-1H-pyrazol-4-yl)-1H-pyrrolo[2,3-b]pyridin-5-yl)-N-propylcyclohexanamine] | 316 nM |
| COCCN[C@H]1CC[C@H](c2cnc3[nH]cc(-c4cnn(C)c4)c3c2)CC1 [Compound I-111, (1r,4r)-N-(2-methoxyethyl)-4-(3-(1-methyl-1H-pyrazol-4-yl)-1H-pyrrolo[2,3-b]pyridin-5-yl)cyclohexanamine] | 263 nM |
| Cn1cc(-c2c[nH]c3ncc([C@H]4CC[C@H](CO)CC4)cc23)cn1 [Compound I-74, ((1r,4r)-4-(3-(1-methyl-1H-pyrazol-4-yl)-1H-pyrrolo[2,3-b]pyridin-5-yl)cyclohexyl)methanol] | 63 nM |
| Cn1cc(-c2c[nH]c3ncc(C4CCC(C)(C)CC4)cc23)cn1 [Compound I-18, 5-(4,4-dimethylcyclohexyl)-3-(1-methyl-1H-pyrazol-4-yl)-1H-pyrrolo[2,3-b]pyridine] | 288 nM |
| Cn1cc(-c2c[nH]c3ncc([C@H]4CC[C@H](NCCO)CC4)cc23)cn1 [Compound I-129, 2-((1r,4r)-4-(3-(1-methyl-1H-pyrazol-4-yl)-1H-pyrrolo[2,3-b]pyridin-5-yl)cyclohexylamino)ethanol] | 191 nM |
| CN1CCN([C@H]2CC[C@@H](c3cnc4[nH]cc(-c5cnn(C(F)(F)F)c5)c4c3)CC2)CC1 [Compound I-67, 5-((1s,4s)-4-(4-methylpiperazin-1-yl)cyclohexyl)-3-(1-(trifluoromethyl)-1H-pyrazol-4-yl)-1H-pyrrolo[2,3-b]pyridine] | 178 nM |
| Cn1cc(-c2c[nH]c3ncc([C@H]4CC[C@@H](C(=O)O)CC4)cc23)cn1 [Compound I-77, (1s,4s)-4-(3-(1-methyl-1H-pyrazol-4-yl)-1H-pyrrolo[2,3-b]pyridin-5-yl)cyclohexanecarboxylic acid] | > 500 nM |
| Cn1cc(-c2c[nH]c3ncc(C4=CC5CC(O)CC(C4)C5)cc23)cn1 (centres unmarked) [Compound I-147, 7-(3-(1-methyl-1H-pyrazol-4-yl)-1H-pyrrolo[2,3-b]pyridin-5-yl)bicyclo[3.3.1]non-6-en-3-ol] | > 1000 nM |
| Cn1cc(-c2c[nH]c3ncc(C4=CCC(C)(C)CC4)cc23)cn1 [Compound I-15, 5-(4,4-dimethylcyclohex-1-enyl)-3-(1-methyl-1H-pyrazol-4-yl)-1H-pyrrolo[2,3-b]pyridine] | 275 nM |
| CC1CCCC(c2cnc3[nH]cc(-c4cnn(C)c4)c3c2)C1 (mixture of isomers) [Compound I-32, 3-(1-methyl-1H-pyrazol-4-yl)-5-(3-methylcyclohexyl)-1H-pyrrolo[2,3-b]pyridine] | 79 nM |
| Cn1cc(-c2c[nH]c3ncc(C4=CCC(N5CCOCC5)CC4)cc23)cn1 (centres unmarked) [Compound I-75, 3-(1-Methyl-1H-pyrazol-4-yl)-5-(4-morpholin-4-yl-cyclohex-1-enyl)-1H-pyrrolo[2,3-b]pyridine] | 89 nM |
| Cn1cc(-c2c[nH]c3ncc(C4CC(C)(C)CC(C)(C)C4)cc23)cn1 [Compound I-34, 3-(1-methyl-1H-pyrazol-4-yl)-5-(3,3,5,5-tetramethylcyclohexyl)-1H-pyrrolo[2,3-b]pyridine] | 2140 nM |
| Cc1c(-c2c[nH]c3ncc([C@H]4CC[C@@H](N5CCOCC5)CC4)cc23)cnn1C [Compound I-96, 4-((1s,4s)-4-(3-(1,5-dimethyl-1H-pyrazol-4-yl)-1H-pyrrolo[2,3-b]pyridin-5-yl)cyclohexyl)morpholine] | 1700 nM |
| COC1(c2cnc3[nH]cc(-c4cnn(C)c4)c3c2)CCCC1 [Compound I-63, 5-(1-methoxycyclopentyl)-3-(1-methyl-1H-pyrazol-4-yl)-1H-pyrrolo[2,3-b]pyridine] | 468 nM |

| SMILES | IC50 |
| --- | --- |
| COCCN(C)[C@H]1CC[C@@H](c2cnc3[nH]cc(-c4cnn(C)c4)c3c2)CC1 [Compound I-118, (1s,4s)-N-(2-methoxyethyl)-N-methyl-4-(3-(1-methyl-1H-pyrazol-4-yl)-1H-pyrrolo[2,3-b]pyridin-5-yl)cyclohexanamine] | 257 nM |
| Cn1cc(-c2c[nH]c3ncc(C4=CC5(CC4)OCCO5)cc23)cn1 [Compound I-51, 3-(1-methyl-1H-pyrazol-4-yl)-5-(1,4-dioxaspiro[4.4]non-6-en-7-yl)-1H-pyrrolo[2,3-b]pyridine] | 191 nM |
| Cn1cc(-c2c[nH]c3ncc(C4=C[C@H]5O[C@@H]4CC5C(N)=O)cc23)cn1 (mixture of isomers) [Compound I-156, (1R,4R)-5-(3-(1-methyl-1H-pyrazol-4-yl)-1H-pyrrolo[2,3-b]pyridin-5-yl)-7-oxabicyclo[2.2.1]hept-5-ene-2-carboxamide] | 1410 nM |
| CC1CC(c2cnc3[nH]cc(-c4cnn(C)c4)c3c2)CC(C)(C)C1 (mixture of isomers) [Compound I-36, 3-(1-methyl-1H-pyrazol-4-yl)-5-(3,3,5-trimethylcyclohexyl)-1H-pyrrolo[2,3-b]pyridine] | 257 nM |
| Cn1cc(-c2c[nH]c3ncc(C4CCC(c5ccccc5)CC4)cc23)cn1 (mixture of isomers) [Compound I-35, 3-(1-methyl-1H-pyrazol-4-yl)-5-(4-phenylcyclohexyl)-1H-pyrrolo[2,3-b]pyridine] | 91 nM |
| CC1CCCCC1c1cnc2[nH]cc(-c3cnn(C)c3)c2c1 (mixture of isomers) [Compound I-33, 3-(1-methyl-1H-pyrazol-4-yl)-5-(2-methylcyclohexyl)-1H-pyrrolo[2,3-b]pyridine] | 110 nM |
| CN(C)[C@H]1CC[C@H](c2cnc3[nH]cc(-c4cnn(CCN5CCOCC5)c4)c3c2)CC1 [Compound I-60, (1r,4r)-N,N-dimethyl-4-(3-(1-(2-morpholinoethyl)-1H-pyrazol-4-yl)-1H-pyrrolo[2,3-b]pyridin-5-yl)cyclohexanamine] | > 500 nM |
| c1n[nH]cc1-c1c[nH]c2ncc([C@H]3CC[C@@H](N4CCOCC4)CC3)cc12 [Compound I-78, 4-((1s,4s)-4-(3-(1H-pyrazol-4-yl)-1H-pyrrolo[2,3-b]pyridin-5-yl)cyclohexyl)morpholine] | 288 nM |
| c1n[nH]cc1-c1c[nH]c2ncc([C@H]3CC[C@H](N4CCOCC4)CC3)cc12 [Compound I-79, 4-((1r,4r)-4-(3-(1H-pyrazol-4-yl)-1H-pyrrolo[2,3-b]pyridin-5-yl)cyclohexyl)morpholine] | 117 nM |
| CCNC1CCC(c2cnc3[nH]cc(-c4cnn(C)c4)c3c2)CC1 (centres unmarked) [Compound I-55, Ethyl-{4-[3-(1-methyl-1H-pyrazol-4-yl)-1H-pyrrolo[2,3-b]pyridin-5-yl]-cyclohexyl}-amine] | 263 nM |
| CN1CCN(C2CC3C=C(c4cnc5[nH]cc(-c6cnn(C)c6)c5c4)CC(C3)C2)CC1 (stereo not drawn) [Compound I-149, trans-3-(1-methyl-1H-pyrazol-4-yl)-5-(7-(4-methylpiperazin-1-yl)bicyclo[3.3.1]non-2-en-3-yl)-1H-pyrrolo[2,3-b]pyridine] | > 500 nM |
| Cc1c(-c2c[nH]c3ncc([C@H]4CC[C@H](N5CCOCC5)CC4)cc23)cnn1C [Compound I-95, 4-((1r,4r)-4-(3-(1,5-dimethyl-1H-pyrazol-4-yl)-1H-pyrrolo[2,3-b]pyridin-5-yl)cyclohexyl)morpholine] | 1510 nM |
| Cn1cc(-c2c[nH]c3ncc([C@H]4CC[C@@H](NC5CCOCC5)CC4)cc23)cn1 [Compound I-128, N-((1s,4s)-4-(3-(1-methyl-1H-pyrazol-4-yl)-1H-pyrrolo[2,3-b]pyridin-5-yl)cyclohexyl)tetrahydro-2H-pyran-4-amine] | 794 nM |
| Cn1cc(-c2c[nH]c3ncc(C4CCC(N5CCC5)CC4)cc23)cn1 (centres unmarked) [Compound I-41, 5-(4-(azetidin-1-yl)cyclohexyl)-3-(1-methyl-1H-pyrazol-4-yl)-1H-pyrrolo[2,3-b]pyridine] | 103 nM |
| Cn1cc(-c2c[nH]c3ncc([C@H]4CC[C@H](N5CC[C@H](F)C5)CC4)cc23)cn1 [Compound I-50, 5-((1S,4r)-4-((S)-3-fluoropyrrolidin-1-yl)cyclohexyl)-3-(1-methyl-1H-pyrazol-4-yl)-1H-pyrrolo[2,3-b]pyridine] | 214 nM |
| FC(F)n1cc(-c2c[nH]c3ncc(C4=CCC(N5CCOCC5)CC4)cc23)cn1 (centres unmarked) [Compound I-5, 3-(1-Difluoromethyl-1H-pyrazol-4-yl)-5-(4-morpholin-4-yl-cyclohex-1-enyl)-1H-pyrrolo[2,3-b]pyridine] | 339 nM |
